Experimental data reported in patent US20240294548A1, “TRICYCLIC SULTAMS AND SULFAMIDES AS ANTITUMOR AGENTS” (PELOTON THERAPEUTICS INC., priority 2021, published 2024).

What was measured:
[1] = molecular target: T1, DCAF15 (DDA1-DDB1ΔB-DCAF15Δpro) (Homo sapiens, UniProt Q66K64, DEL276-383); experiment: DCAF15 displacement assay (displacement FRET, probe PT7795); format: binding; settings: displacement of PT7795 (300 nM), compound 0.01 to 100 μM, 18 hours incubation; read-out: DCAF15 displacement IC50
T1 construct: made in house; host or cells: Sf9 (Bac-to-Bac baculovirus)

[2] = tested on: HCT116 human colorectal carcinoma cells; experiment: CellTiter-Glo assay (cell viability); format: cell-based; settings: HCT-116, 72 h, HCT116 cells, 3 days, CellTiter-Glo luminescence, read-out: CTG IC50
Protocol: HCT116 human colorectal carcinoma cells were used in these experiments. HCT116 cells were obtained from ATCC. CellTiter-Glo® Luminescent Cell Viability Assay Reagent was obtained from Promega.
About 3,000 cells were seeded into 96-well plate with 100 μL of media (DMEM supplemented with 10% FBS, 100 units penicillin, and […] streptomycin per mL) the day before the experiment. For compound treatment, the master plate was prepared as follows: 100× compound stocks were prepared in a 96-well plate by 1 to 3 serial dilutions of 0.5 mM DMSO stocks. Each master plate contained serial dilution of 8 compounds, including the control compound E7820. […] of 100× compound stock was added to each well of the assay plate to give final concentrations of […]. Each concentration was tested in triplicate. After 3 days, cell viability was determined using CellTiter-Glo Luminescent Cell Viability Assay Reagent following the manufacturer's recommended protocol. Briefly, […] of CellTiter-Glo reagent was added to each well of the assay plate and the contents were mixed for 3 minutes at 600 rpm on a shaker (Thermomixer R). The plate was immediately placed in a plate reader (Synergy 2) and the luminescence signal (0.5 second per well integration time) was determined. IC50 values were calculated using Dotmatics software.

[3] = molecular target: T2, DCAF15 RBM39 ternary complex (Homo sapiens, UniProt Q14498+Q66K64, DEL276-383); experiment: DCAF15 RBM39 complex formation assay (FRET); format: biochemical; settings: FRET ratio, 20 nM DDB1DB/DCAF15, 50 nM RBM39 R1R2, overnight at 4° C.; read-out: DCAF15 RBM39 ternary complex EC50
T2 construct: Amino acids 150 to 331 of RBM39 were cloned into pGEX4T3; GST (from the pGEX4T3 vector, own knowledge) followed by a TEV cleavage site (N); made in house; host or cells: Sf9 baculovirus (DDB1ΔB/DCAF15); E. coli (RBM39 R1R2)
In short: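 Mix of 20 nM DDB1DB/DCAF15, 50 nM RBM39 R1R2, 0.2 nM Eu-anti-6×His and 50 nM APC-anti-FLAG (25 mM HEPES pH 7.5, 100 mM NaCl). Compounds, 1 μM down in 3-fold steps over 14 points, kept overnight at 4 °C.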

T2 sequence (Q66K64 with tags, fused parts or gaps DEL276-383): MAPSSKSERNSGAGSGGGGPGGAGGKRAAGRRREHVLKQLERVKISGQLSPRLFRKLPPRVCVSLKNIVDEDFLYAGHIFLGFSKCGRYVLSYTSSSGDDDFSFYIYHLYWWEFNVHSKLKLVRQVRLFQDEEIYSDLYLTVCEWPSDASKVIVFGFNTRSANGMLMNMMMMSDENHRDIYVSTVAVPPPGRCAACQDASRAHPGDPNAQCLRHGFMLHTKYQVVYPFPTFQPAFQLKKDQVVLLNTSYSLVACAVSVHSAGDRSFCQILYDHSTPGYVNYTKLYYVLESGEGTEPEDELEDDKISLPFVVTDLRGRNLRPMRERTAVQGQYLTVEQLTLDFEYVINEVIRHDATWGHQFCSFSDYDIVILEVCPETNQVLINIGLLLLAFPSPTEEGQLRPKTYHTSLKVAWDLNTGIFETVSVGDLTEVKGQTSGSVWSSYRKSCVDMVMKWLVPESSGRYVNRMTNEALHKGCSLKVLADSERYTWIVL
T2 sequence (Q14498 150-331, stated change not applied): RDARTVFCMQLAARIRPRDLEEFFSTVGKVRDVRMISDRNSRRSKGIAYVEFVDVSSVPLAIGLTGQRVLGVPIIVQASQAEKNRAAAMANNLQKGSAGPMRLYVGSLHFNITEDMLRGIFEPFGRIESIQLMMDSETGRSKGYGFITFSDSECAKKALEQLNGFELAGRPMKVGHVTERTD

O=S1(=O)Nc2c(cc(Cl)c3c(Cl)c[nH]c23)CN1CCc1ccccc1 [Compound 84, 6,7-dichloro-3-phenethyl-1,3,4,9-tetrahydro-[1,2,6] thiadiazino[4,3-g]indole 2,2-dioxide]
IC50 [1]: 33.1 µM | IC50 [2]: 1.79 µM | EC50 [3]: 0.0043 µM

COCCC1Cc2cc(Cl)c3c(Cl)c[nH]c3c2NS1(=O)=O (racemic) [Compound 22, 6,7-dichloro-3-(2-methoxyethyl)-1,3,4,9-tetrahydro-[1,2]thiazino[4,3-g]indole 2,2-dioxide]
IC50 [1]: 12.3 µM | IC50 [2]: 0.234 µM | EC50 [3]: 0.0007 µM

COCCCN1Cc2cc(Cl)c3c(Cl)c[nH]c3c2NS1(=O)=O [Compound 68, 6,7-dichloro-3-(3-methoxypropyl)-1,3,4,9-tetrahydro-[1,2,6] thiadiazino[4,3-g]indole 2,2-dioxide]
IC50 [1]: 0.63 µM | IC50 [2]: 0.205 µM | EC50 [3]: 0.0023 µM

O=c1ccc(CN2Cc3cc(Cl)c4c(Cl)c[nH]c4c3NS2(=O)=O)c[nH]1 [Compound 17, 5-((6,7-dichloro-2,2-dioxido-4,9-dihydro-[1,2,6]thiadiazino[4,3-g]indol-3(1H)-yl)methyl)pyridin-2(1H)-one]
IC50 [1]: 0.797 µM | IC50 [2]: 0.916 µM | EC50 [3]: 0.0018 µM

O=S1(=O)Nc2c(cc(Cl)c3c(Cl)c[nH]c23)CN1Cc1cccnc1 [Compound 26, 6,7-dichloro-3-(pyridin-3-ylmethyl)-1,3,4,9-tetrahydro-[1,2,6] thiadiazino[4,3-g] indole 2,2-dioxide]
IC50 [1]: 0.507 µM | IC50 [2]: 0.13 µM | EC50 [3]: 0.0012 µM

COCC[C@@H]1Cc2cc(Cl)c3c(Cl)c[nH]c3c2NS1(=O)=O (single isomer, unassigned) [Compound 30]
IC50 [1]: 2.58 µM | IC50 [2]: 0.184 µM | EC50 [3]: 0.0013 µM

O=S1(=O)Nc2c(cc(Cl)c3c(Cl)c[nH]c23)CN1Cc1ccnnc1 [Compound 67, 6,7-dichloro-3-(pyridazin-4-ylmethyl)-1,3,4,9-tetrahydro-[1,2,6] thiadiazino[4,3-g]indole 2,2-dioxide]
IC50 [1]: 0.452 µM | IC50 [2]: 0.32 µM | EC50 [3]: 0.002 µM

Cn1ncnc1CN1Cc2cc(Cl)c3c(Cl)c[nH]c3c2NS1(=O)=O [Compound 38, 6,7-dichloro-3-((1-methyl-1H-1,2,4-triazol-5-yl)methyl)-1,3,4,9-tetrahydro-[1,2,6] thiadiazino[4,3-g]indole 2,2-dioxide]
IC50 [1]: 0.458 µM | IC50 [2]: 0.263 µM | EC50 [3]: 0.0013 µM

O=S1(=O)Nc2c(cc(Cl)c3c(Cl)c[nH]c23)CN1CCO [Compound 24, 6,7-dichloro-3-(2-hydroxyethyl)-1,3,4,9-tetrahydro-[1,2,6] thiadiazino[4,3-g]indole 2,2-dioxide]
IC50 [1]: 8.3 µM | IC50 [2]: 0.799 µM | EC50 [3]: 0.0039 µM

O=S1(=O)Nc2c(cc(Cl)c3c(Cl)c[nH]c23)CN1Cc1cccnc1Cl [Compound 27, 6,7-dichloro-3-((2-chloropyridin-3-yl)methyl)-1,3,4,9-tetrahydro-[1,2,6]thiadiazino [4,3-g]indole 2,2-dioxide]
IC50 [1]: 0.647 µM | IC50 [2]: 0.14 µM | EC50 [3]: 0.0008 µM

O=S1(=O)Nc2c(cc(Cl)c3c(Cl)c[nH]c23)CN1Cc1cccc(F)c1 [Compound 75, 6,7-dichloro-3-(3-fluorobenzyl)-1,3,4,9-tetrahydro-[1,2,6] thiadiazino[4,3-g]indole 2,2-dioxide]
IC50 [1]: 4.32 µM | IC50 [2]: 0.85 µM | EC50 [3]: 0.0023 µM

O=S1(=O)Nc2c(cc(Cl)c3c(Cl)c[nH]c23)CN1Cc1ccccc1F [Compound 70, 6,7-dichloro-3-(2-fluorobenzyl)-1,3,4,9-tetrahydro-[1,2,6] thiadiazino[4,3-g]indole 2,2-dioxide]
IC50 [1]: 1.95 µM | IC50 [2]: 0.833 µM | EC50 [3]: 0.0033 µM

O=c1cc(CN2Cc3cc(Cl)c4c(Cl)c[nH]c4c3NS2(=O)=O)cc[nH]1 [Compound 60, 4-((6,7-dichloro-2,2-dioxido-4,9-dihydro-[1,2,6]thiadiazino[4,3-g]indol-3(1H)-yl)methyl)pyridin-2(1H)-one]
IC50 [1]: 0.162 µM | IC50 [2]: 2.84 µM | EC50 [3]: 0.0024 µM

CC(=O)N1CC(CN2Cc3cc(Cl)c4c(Cl)c[nH]c4c3NS2(=O)=O)C1 [Compound 47, 1-(3-((6,7-dichloro-2,2-dioxido-4,9-dihydro-[1,2,6]thiadiazino[4,3-g]indol-3(1H)-yl)methyl)azetidin-1-yl) ethan-1-one]
IC50 [1]: 0.39 µM | IC50 [2]: 0.393 µM | EC50 [3]: 0.0004 µM

O=S1(=O)Nc2c(cc(Cl)c3c(Cl)c[nH]c23)CN1Cc1cncc(Cl)c1 [Compound 56, 6,7-dichloro-3-((5-chloropyridin-3-yl)methyl)-1,3,4,9-tetrahydro-[1,2,6] thiadiazino[4,3-g]indole 2,2-dioxide]
IC50 [1]: 1.44 µM | IC50 [2]: 0.184 µM | EC50 [3]: 0.0026 µM

N#Cc1cccc(CN2Cc3cc(Cl)c4c(Cl)c[nH]c4c3NS2(=O)=O)c1 [Compound 51, 3-((6,7-dichloro-2,2-dioxido-4,9-dihydro-[1,2,6]thiadiazino[4,3-g]indol-3(1H)-yl)methyl) benzonitrile]
IC50 [1]: 4.41 µM | IC50 [2]: 0.283 µM | EC50 [3]: 0.0015 µM

COc1ccc(CN2Cc3cc(Cl)c4c(Cl)c[nH]c4c3NS2(=O)=O)cn1 [Compound 21, 6,7-dichloro-3-((6-methoxypyridin-3-yl)methyl)-1,3,4,9-tetrahydro-[1,2,6]thiadiazino [4,3-g]indole 2,2-dioxide]
IC50 [1]: 0.56 µM | IC50 [2]: 0.415 µM | EC50 [3]: 0.0015 µM

O=S1(=O)Nc2c(cc(Cl)c3c(Cl)c[nH]c23)CN1Cc1cccc(Cl)c1 [Compound 11, 6,7-dichloro-3-(3-chlorobenzyl)-1,3,4,9-tetrahydro-[1,2,6] thiadiazino[4,3-g]indole 2,2-dioxide]
IC50 [1]: 9.72 µM | IC50 [2]: 1.4 µM | EC50 [3]: 0.0028 µM

O=S1(=O)CCc2cc(Cl)c3c(Cl)c[nH]c3c2N1 [Compound 5, 6,7-dichloro-1,3,4,9-tetrahydro-[1,2]thiazino[4,3-g]indole 2,2-dioxide]
IC50 [1]: 20 µM | IC50 [2]: 0.789 µM | EC50 [3]: 0.011 µM

O=S1(=O)Nc2c(cc(Cl)c3c(Cl)c[nH]c23)CN1Cc1cccc(O)c1 [Compound 73, 6,7-dichloro-3-(3-hydroxybenzyl)-1,3,4,9-tetrahydro-[1,2,6] thiadiazino[4,3-g]indole 2,2-dioxide]
IC50 [1]: 1.65 µM | IC50 [2]: 0.418 µM | EC50 [3]: 0.0013 µM

CC(=O)N1CCC(CN2Cc3cc(Cl)c4c(Cl)c[nH]c4c3NS2(=O)=O)CC1 [Compound 45, 1-(4-((6,7-dichloro-2,2-dioxido-4,9-dihydro-[1,2,6]thiadiazino[4,3-g]indol-3(1H)-yl)methyl)piperidin-1-yl)ethan-1-one]
IC50 [1]: 0.127 µM | IC50 [2]: 0.0528 µM | EC50 [3]: 0.0016 µM

COCC[C@H]1Cc2cc(Cl)c3c(Cl)c[nH]c3c2NS1(=O)=O (single isomer, unassigned) [Compound 29]
IC50 [1]: 50.5 µM | IC50 [2]: 0.555 µM | EC50 [3]: 0.0019 µM

O=S1(=O)Nc2c(cc(Cl)c3c(Cl)c[nH]c23)CN1Cc1ccnc(Cl)c1 [Compound 63, 6,7-dichloro-3-((2-chloropyridin-4-yl)methyl)-1,3,4,9-tetrahydro-[1,2,6] thiadiazino[4,3-g]indole 2,2-dioxide]
IC50 [1]: 0.328 µM | IC50 [2]: 0.351 µM | EC50 [3]: 0.001 µM

COCCN1Cc2cc(Cl)c3cc[nH]c3c2NS1(=O)=O [Compound 2, 6-chloro-3-(2-methoxyethyl)-1,3,4,9-tetrahydro-[1,2,6] thiadiazino[4,3-g]indole 2,2-dioxide]
IC50 [1]: 51.8 µM | IC50 [2]: 2.23 µM | EC50 [3]: 0.0658 µM

O=S1(=O)Nc2c(cc(Cl)c3c(Cl)c[nH]c23)CN1Cc1cnccc1Cl [Compound 54, 6,7-dichloro-3-((4-chloropyridin-3-yl)methyl)-1,3,4,9-tetrahydro-[1,2,6] thiadiazino[4,3-g]indole 2,2-dioxide]
IC50 [1]: 0.371 µM | IC50 [2]: 0.128 µM | EC50 [3]: 0.0012 µM

N#Cc1ccccc1CN1Cc2cc(Cl)c3c(Cl)c[nH]c3c2NS1(=O)=O [Compound 46, 2-((6,7-dichloro-2,2-dioxido-4,9-dihydro-[1,2,6]thiadiazino[4,3-g]indol-3(1H)-yl)methyl) benzonitrile]
IC50 [1]: 0.294 µM | IC50 [2]: 0.278 µM | EC50 [3]: 0.0016 µM
